Converted amounts (≈) assume the structure as drawn. Where two headings read alike, the source gives them in different places. Positions of bridges follow the written chain, without caps; N, C: chain ends. Non-standard residues stand in square brackets, D forms with d. Residues, ends and D or L forms follow the SMILES beside them. Lys(N3) = [N-]=[N+]=NCCCC[C@H](N)C(=O)O; R8 = C=CCCCCCC[C@@](C)(N)C(=O)O; Cba = N[C@@H](CC1CCC1)C(=O)O; S5 = C=CCCC[C@](C)(N)C(=O)O; βAla = NCCC(=O)O
What was measured:
[1] = Lactate dehydrogenase (LDH) release assay; assay type: cell-based
Procedure, shortened: (§1)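 Read-out was lactate dehydrogenase release, reflecting loss of membrane integrity, in reporter-engineered HCT116 cells (p53-responsive β-lactamase) seeded at 8000 cells per well. Final DMSO was 0.5%, and reported values are geometric means from three or more biological repeats.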

HCT116 cells = test: Lactate dehydrogenase (LDH) release assay; assay type: cell-based
Procedure, shortened: as §1

[2] = Solubility assay (kinetic solubility, PBS pH 7); assay type: physicochemical; conditions: pH 7, aqueous buffer, kinetic from dmso stock, pH 7, PBS; read-out: Solubility
Procedure, shortened: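 Values derive from peak-area ratios of sample versus a 100 µM standard, scaled by that standard's concentration.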

physchem [3] = test: physchem
[4] = Experimental LogD (partition coefficient); conditions: not stated, Partition Coeff LogD
[5] = Nanoclick permeability assay
Procedure, shortened: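 Azido-peptide permeability was read as loss of NanoBRET signal (donor 450 nm, acceptor 610 nm) after adding NanoBret618-azide at 10 μM final.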

physchem [6] = test: physchem; remark: listed apart in the source
[7] = 0% FBS 4Hr, read-out: LDH: Cytotoxicity assay EC50

| SMILES | EC50 ([1]; LDH: Cytotoxicity assay: EC50) [nM] | LDH: Cytotoxicity assay: % Effect (HCT116 cells) [%] | solubility kinetic [2] [µM] | EPSA (physchem [3]) [A^2] | logD [4] | EC50 [1, 7] [nM] | LDH: Cytotoxicity assay % Effect (HCT116 cells; 0% FBS 4Hr) [%] | LDH: Cytotoxicity assay % Effect (HCT116 cells; 0% FBS 16Hr) [%] | cell entry EC50 [5] [nM] | EPSA (physchem [6]) [A^2] | EC50 ([1]; 4 hours, 0% serum, read-out: LDH Cytotoxicity assay EC50) [nM] |
| --- | --- | --- | --- | --- | --- | --- | --- | --- | --- | --- | --- |
| CC(=O)N[C@@H](CC(C)C)C(=O)N[C@H](C(=O)N[C@@H](Cc1ccccc1)C(=O)N[C@]1(C)CCCCCCC=CCCC[C@@](C)(C(=O)N[C@@H](CO)C(=O)N[C@@H](C)C(=O)N[C@@H](C)C(N)=O)NC(=O)[C@H](CC2CCC2)NC(=O)[C@H](CC(C)C)NC(=O)[C@H](CCC(N)=O)NC(=O)[C@@H](Cc2c[nH]c3ccccc23)NC(=O)[C@H](Cc2ccc(O)cc2)NC(=O)[C@H](CCC(=O)O)NC1=O)[C@@H](C)O [MP-594] | 14800 | 35.22 | 11 (≈ 19.7 µg/mL) | 203 | 2.83 | – | – | – | – | – | – |
| CC(=O)N[C@@H](CC(C)C)C(=O)N[C@H](C(=O)N[C@@H](C)C(=O)N[C@]1(C)CCCCCCC=CCCC[C@@](C)(C(=O)N[C@@H](CO)C(=O)N[C@@H](C)C(=O)N[C@H](C)C(N)=O)NC(=O)[C@H](CC2CCC2)NC(=O)[C@H](CC(C)C)NC(=O)[C@H](CCC(N)=O)NC(=O)[C@H](Cc2c[nH]c3ccccc23)NC(=O)[C@H](Cc2ccc(O)cc2)NC(=O)[C@H](CCC(=O)O)NC1=O)[C@@H](C)O [MP-671] (Ac-LTA[R8]EYWQL[Cba][S5]SA[dA]-NH2; staple 4-11) | > 50600 | 3.06 | 74.3 (≈ 127 µg/mL) | 199 | 2.27 | – | – | – | – | – | – |
| CC(=O)N[C@@H](CC(C)C)C(=O)N[C@H](C(=O)N[C@@H](Cc1ccccc1)C(=O)N[C@]1(C)CCCCCCC=CCCC[C@@](C)(C(=O)N[C@@H](CO)C(=O)N[C@@H](C)C(=O)N[C@@H](C)C(N)=O)NC(=O)[C@H](CC2CCC2)NC(=O)[C@H](C)NC(=O)[C@H](C)NC(=O)[C@H](Cc2c[nH]c3ccccc23)NC(=O)[C@H](Cc2ccc(O)cc2)NC(=O)[C@H](CCC(=O)O)NC1=O)[C@@H](C)O [MP-865] (Ac-LTF[R8]EYWAA[Cba][S5]SAA-NH2; staple 4-11) | > 50600 | – | 84.5 (≈ 143 µg/mL) | 211 | 2.94 | – | – | – | – | – | – |
| CC(=O)N[C@@H](CC(C)C)C(=O)N[C@H](C(=O)N[C@@H](Cc1ccccc1)C(=O)N[C@]1(C)CCCCCCC=CCCC[C@@](C)(C(=O)N[C@@H](CO)C(=O)N[C@@H](C)C(=O)N[C@@H](C)C(N)=O)NC(=O)[C@H](CC2CCC2)NC(=O)[C@H](CC(C)C)NC(=O)[C@H](CCC(N)=O)NC(=O)[C@H](Cc2c[nH]c3ccccc23)NC(=O)[C@H](C)NC(=O)[C@H](CCC(=O)O)NC1=O)[C@@H](C)O [MP-363] (Ac-LTF[R8]EAWQL[Cba][S5]SAA-NH2; staple 4-11) | > 50600 | 4.97 | – | 195 | 2.85 | – | – | – | – | – | – |
| CC(=O)N[C@@H](CC(C)C)C(=O)N[C@H](C(=O)N[C@@H](Cc1ccccc1)C(=O)N[C@]1(C)CCCCCCC=CCCC[C@@](C)(C(=O)N[C@@H](CO)C(=O)N[C@@H](C)C(=O)N[C@@H](C)C(N)=O)NC(=O)[C@H](CC2CCC2)NC(=O)[C@H](CCC(N)=O)NC(=O)[C@H](CCC(N)=O)NC(=O)[C@H](Cc2c[nH]c3ccccc23)NC(=O)[C@H](Cc2ccc(O)cc2)NC(=O)[C@H](CCC(=O)O)NC1=O)[C@@H](C)O [MP-864] (Ac-LTF[R8]EYWQQ[Cba][S5]SAA-NH2; staple 4-11) | > 50600 | – | 86.5 (≈ 156 µg/mL) | 212 | 2.59 | – | – | – | – | – | – |
| CC(=O)N[C@@H](CCCCN=[N+]=[N-])C(=O)NCCC(=O)N[C@@H](CCCCN)C(=O)N[C@H](C(=O)N[C@@H](Cc1ccccc1)C(=O)N[C@]1(C)CCCCCCC=CCCC[C@@](C)(C(=O)N[C@@H](CO)C(=O)N[C@@H](C)C(=O)N[C@@H](C)C(N)=O)NC(=O)[C@H](CC2CCC2)NC(=O)[C@H](CCC(N)=O)NC(=O)[C@H](C)NC(=O)[C@H](Cc2c[nH]c3ccccc23)NC(=O)[C@H](Cc2ccc(O)cc2)NC(=O)[C@H](CCC(=O)O)NC1=O)[C@@H](C)O [MP-546, AZIDE-ATSP-7041 (L1K)] | – | – | 2 (≈ 3.97 µg/mL) | – | 2.85 | > 50000 | 34.42 | 13.56 | 210 | 229 | – |
| CC(=O)N[C@@H](CCCCN=[N+]=[N-])C(=O)NCCC(=O)N[C@@H](CC(C)C)C(=O)N[C@H](C(=O)N[C@@H](Cc1ccccc1)C(=O)N[C@]1(C)CCCCCCC=CCCC[C@@](C)(C(=O)N[C@@H](CO)C(=O)N[C@@H](C)C(=O)N[C@@H](C)C(N)=O)NC(=O)[C@H](CC2CCC2)NC(=O)[C@H](Cc2c[nH]cn2)NC(=O)[C@H](C)NC(=O)[C@H](Cc2c[nH]c3ccccc23)NC(=O)[C@H](Cc2ccc(O)cc2)NC(=O)[C@H](CCC(=O)O)NC1=O)[C@@H](C)O [MP-176, AZIDE-ATSP-7041 (Q9H)] | – | – | 2 (≈ 3.96 µg/mL) | – | 2.88 | > 50000 | 5.39 | 4.02 | 396 | 222 | – |
| CC(=O)N[C@@H](CCCCN=[N+]=[N-])C(=O)NCCC(=O)N[C@@H](C)C(=O)N[C@H](C(=O)N[C@@H](Cc1ccccc1)C(=O)N[C@]1(C)CCCCCCC=CCCC[C@@](C)(C(=O)N[C@@H](CO)C(=O)N[C@@H](C)C(=O)N[C@@H](C)C(N)=O)NC(=O)[C@H](CC2CCC2)NC(=O)[C@H](C)NC(=O)[C@H](C)NC(=O)[C@H](Cc2c[nH]c3ccccc23)NC(=O)[C@H](Cc2ccc(O)cc2)NC(=O)[C@H](CCC(=O)O)NC1=O)[C@@H](C)O [MP-959, AZIDE-ATSP-7041 (L1A,Q9A)] (Ac-[Lys(N3)][βAla]ATF[R8]EYWAA[Cba][S5]SAA-NH2; staple 6-13) | – | – | 106 (≈ 197 µg/mL) | – | 2.79 | 976 | 12.11 | 5.8 | 126 | 218 | 980 |
| CC(=O)N[C@@H](CCCCN=[N+]=[N-])C(=O)NCCC(=O)N[C@@H](CC(C)C)C(=O)N[C@H](C(=O)N[C@@H](Cc1ccccc1)C(=O)N[C@]1(C)CCCCCCC=CCCC[C@@](C)(C(=O)N[C@@H](CO)C(=O)N[C@@H](C)C(=O)N[C@@H](C)C(N)=O)NC(=O)[C@H](CC2CCC2)NC(=O)[C@H](CCC(N)=O)NC(=O)[C@H](CCCCN)NC(=O)[C@H](Cc2c[nH]c3ccccc23)NC(=O)[C@H](Cc2ccc(O)cc2)NC(=O)[C@H](CCC(=O)O)NC1=O)[C@@H](C)O [MP-549, AZIDE-ATSP-7041 (A8K)] | – | – | 4.5 (≈ 9.12 µg/mL) | – | 2.75 | > 50000 | 7.105 | 45.26 | 233 | 220 | – |
| CC(=O)N[C@@H](CCCCN=[N+]=[N-])C(=O)NCCC(=O)N[C@@H](CC(C)C)C(=O)N[C@H](C(=O)N[C@@H](Cc1ccccc1)C(=O)N[C@]1(C)CCCCCCC=CCCC[C@@](C)(C(=O)N[C@@H](CCCCN)C(=O)N[C@@H](C)C(=O)N[C@@H](C)C(N)=O)NC(=O)[C@H](CC2CCC2)NC(=O)[C@H](CCC(N)=O)NC(=O)[C@H](C)NC(=O)[C@H](Cc2c[nH]c3ccccc23)NC(=O)[C@H](Cc2ccc(O)cc2)NC(=O)[C@H](CCC(=O)O)NC1=O)[C@@H](C)O [MP-551, AZIDE-ATSP-7041 (S12K)] (Ac-[Lys(N3)][βAla]LTF[R8]EYWAQ[Cba][S5]KAA-NH2; staple 6-13) | – | – | 2 (≈ 4.02 µg/mL) | – | 2.83 | > 50000 | 3.03 | -1.59 | 253 | 216 | – |
| CC(=O)N[C@@H](CCCCN=[N+]=[N-])C(=O)NCCC(=O)N[C@@H](CC(C)C)C(=O)N[C@@H](C)C(=O)N[C@@H](Cc1ccccc1)C(=O)N[C@]1(C)CCCCCCC=CCCC[C@@](C)(C(=O)N[C@@H](C)C(=O)N[C@@H](C)C(=O)N[C@@H](C)C(N)=O)NC(=O)[C@H](CC2CCC2)NC(=O)[C@H](CCC(N)=O)NC(=O)[C@H](C)NC(=O)[C@H](Cc2c[nH]c3ccccc23)NC(=O)[C@H](Cc2ccc(O)cc2)NC(=O)[C@H](CCC(=O)O)NC1=O [MP-963, AZIDE-ATSP-7041 (T2A,S12A)] (Ac-[Lys(N3)][βAla]LAF[R8]EYWAQ[Cba][S5]AAA-NH2; staple 6-13) | – | – | 100 (≈ 192 µg/mL) | – | 2.97 | > 50000 | 11.69 | -0.52 | 177 | 220 | – |
| CC(=O)N[C@@H](CCCCN=[N+]=[N-])C(=O)NCCC(=O)N[C@@H](CC(C)C)C(=O)N[C@@H](CCCCN)C(=O)N[C@@H](Cc1ccccc1)C(=O)N[C@]1(C)CCCCCCC=CCCC[C@@](C)(C(=O)N[C@@H](CO)C(=O)N[C@@H](C)C(=O)N[C@@H](C)C(N)=O)NC(=O)[C@H](CC2CCC2)NC(=O)[C@H](CCC(N)=O)NC(=O)[C@H](C)NC(=O)[C@H](Cc2c[nH]c3ccccc23)NC(=O)[C@H](Cc2ccc(O)cc2)NC(=O)[C@H](CCC(=O)O)NC1=O [MP-547, AZIDE-ATSP-7041 (T2K)] | – | – | 3 (≈ 5.99 µg/mL) | – | 3.02 | > 50000 | 26.9 | 15.73 | 72.2 | 229 | – |
